# According to ChEMBL document CHEMBL4804284:
# Assays:
# Set-up in all cases: scale not given: the % may be the effect or the level left
# [1] = test system: Epidermal growth factor receptor (Homo sapiens), P00533 [T790M]; test: Inhibition of DNA-tagged human EGFR T790M mutant assessed as percent of control at 50000 nM by qPCR analysis relative to control
# [2] = test system: Epidermal growth factor receptor (Homo sapiens), P00533 [UNDEFINED MUTATION]; test: Inhibition of DNA-tagged human EGFR E746-A750del mutant assessed as percent of control at 50000 nM by qPCR analysis relative to control
# [3] = target: Dual specificity tyrosine-phosphorylation-regulated kinase 2 (Homo sapiens) (UniProt Q92630); test: Inhibition of DNA-tagged human DYRK2 assessed as percent of control at 50000 nM by qPCR analysis relative to control
# [4] = target: Serine/threonine-protein kinase Chk1 (Homo sapiens) (UniProt O14757); test: Inhibition of DNA-tagged human CHEK1 assessed as percent of control at 50000 nM by qPCR analysis relative to control
# [5] = target: Calcium/calmodulin-dependent protein kinase type II subunit gamma (Homo sapiens) (UniProt Q13555); test: Inhibition of DNA-tagged human CAMK2G assessed as percent of control at 50000 nM by qPCR analysis relative to control
# [6] = target: Serine/threonine-protein kinase BRSK2 (Homo sapiens) (UniProt Q8IWQ3); test: Inhibition of DNA-tagged human BRSK2 assessed as percent of control at 50000 nM by qPCR analysis relative to control
# [7] = target: BMP-2-inducible protein kinase (Homo sapiens) (UniProt Q9NSY1); test: Inhibition of DNA-tagged human BIKE assessed as percent of control at 50000 nM by qPCR analysis relative to control
# [8] = target: Atypical kinase COQ8A, mitochondrial (Homo sapiens) (UniProt Q8NI60); test: Inhibition of DNA-tagged human ADCK3 assessed as percent of control at 50000 nM by qPCR analysis relative to control
# [9] = target: Activin receptor type-1-like (Homo sapiens) (UniProt P37023); test: Inhibition of DNA-tagged human ACVRL1 assessed as percent of control at 50000 nM by qPCR analysis relative to control
# [10] = test system: Mast/stem cell growth factor receptor Kit (Homo sapiens), P10721 [D816V]; test: Inhibition of DNA-tagged human KIT D816V mutant assessed as percent of control at 50000 nM by qPCR analysis relative to control
# [11] = test system: Mast/stem cell growth factor receptor Kit (Homo sapiens), P10721 [L576P]; test: Inhibition of DNA-tagged human KIT L576P mutant assessed as percent of control at 50000 nM by qPCR analysis relative to control
# [12] = target: Serine/threonine-protein kinase MARK1 (Homo sapiens) (UniProt Q9P0L2); test: Inhibition of DNA-tagged human MARK1 assessed as percent of control at 50000 nM by qPCR analysis relative to control
# [13] = target: Dual specificity mitogen-activated protein kinase kinase 5 (Homo sapiens) (UniProt Q13163); test: Inhibition of DNA-tagged human MEK5 assessed as percent of control at 50000 nM by qPCR analysis relative to control
# [14] = target: Dual specificity mitogen-activated protein kinase kinase 7 (Homo sapiens) (UniProt O14733); test: Inhibition of DNA-tagged human MKK7 assessed as percent of control at 50000 nM by qPCR analysis relative to control
# [15] = target: Serine/threonine-protein kinase 26 (Homo sapiens) (UniProt Q9P289); test: Inhibition of DNA-tagged human MST4 assessed as percent of control at 50000 nM by qPCR analysis relative to control
# [16] = target: Mitogen-activated protein kinase 11 (Homo sapiens) (UniProt Q15759); test: Inhibition of DNA-tagged human p38-beta assessed as percent of control at 50000 nM by qPCR analysis relative to control
# [17] = target: Platelet-derived growth factor receptor alpha (Homo sapiens) (UniProt P16234); test: Inhibition of DNA-tagged human PDGFRA assessed as percent of control at 50000 nM by qPCR analysis relative to control
# [18] = target: Platelet-derived growth factor receptor beta (Homo sapiens) (UniProt P09619); test: Inhibition of DNA-tagged human PDGFRB assessed as percent of control at 50000 nM by qPCR analysis relative to control
# [19] = target: Phosphorylase b kinase gamma catalytic chain, skeletal muscle/heart isoform (Homo sapiens) (UniProt Q16816); test: Inhibition of DNA-tagged human PHKG1 assessed as percent of control at 50000 nM by qPCR analysis relative to control
# [20] = target: Serine/threonine-protein kinase pim-3 (Homo sapiens) (UniProt Q86V86); test: Inhibition of DNA-tagged human PIM3 assessed as percent of control at 50000 nM by qPCR analysis relative to control
# [21] = target: Phosphatidylinositol 4-phosphate 5-kinase type-1 alpha (Homo sapiens) (UniProt Q99755); test: Inhibition of DNA-tagged human PIP5K1A assessed as percent of control at 50000 nM by qPCR analysis relative to control
# [22] = target: Dual serine/threonine and tyrosine protein kinase (Homo sapiens) (UniProt Q6XUX3); test: Inhibition of DNA-tagged human RIPK5 assessed as percent of control at 50000 nM by qPCR analysis relative to control
# [23] = target: Ribosomal protein S6 kinase alpha-2 (Homo sapiens) (UniProt Q15349); test: Inhibition of DNA-tagged human C-terminal RSK3 kinase domain 2 assessed as percent of control at 50000 nM by qPCR analysis relative to control
# [24] = target: Serine/threonine-protein kinase Sgk3 (Homo sapiens) (UniProt Q96BR1); test: Inhibition of DNA-tagged human SGK3 assessed as percent of control at 50000 nM by qPCR analysis relative to control
# [25] = target: STE20-like serine/threonine-protein kinase (Homo sapiens) (UniProt Q9H2G2); test: Inhibition of DNA-tagged human SLK assessed as percent of control at 50000 nM by qPCR analysis relative to control
# [26] = target: Serine/threonine-protein kinase 36 (Homo sapiens) (UniProt Q9NRP7); test: Inhibition of DNA-tagged human STK36 assessed as percent of control at 50000 nM by qPCR analysis relative to control
# [27] = target: Serine/threonine-protein kinase TAO3 (Homo sapiens) (UniProt Q9H2K8); test: Inhibition of DNA-tagged human TAOK3 assessed as percent of control at 50000 nM by qPCR analysis relative to control
# [28] = target: Activated CDC42 kinase 1 (Homo sapiens) (UniProt Q07912); test: Inhibition of DNA-tagged human TNK2 assessed as percent of control at 50000 nM by qPCR analysis relative to control
# [29] = target: Mitogen-activated protein kinase kinase kinase 19 (Homo sapiens) (UniProt Q56UN5); test: Inhibition of DNA-tagged human YSK4 assessed as percent of control at 50000 nM by qPCR analysis relative to control
# Ribosomal protein S6 kinase alpha-2 (Homo sapiens), sequence (Q15349 whole entry, the tested form may be a part): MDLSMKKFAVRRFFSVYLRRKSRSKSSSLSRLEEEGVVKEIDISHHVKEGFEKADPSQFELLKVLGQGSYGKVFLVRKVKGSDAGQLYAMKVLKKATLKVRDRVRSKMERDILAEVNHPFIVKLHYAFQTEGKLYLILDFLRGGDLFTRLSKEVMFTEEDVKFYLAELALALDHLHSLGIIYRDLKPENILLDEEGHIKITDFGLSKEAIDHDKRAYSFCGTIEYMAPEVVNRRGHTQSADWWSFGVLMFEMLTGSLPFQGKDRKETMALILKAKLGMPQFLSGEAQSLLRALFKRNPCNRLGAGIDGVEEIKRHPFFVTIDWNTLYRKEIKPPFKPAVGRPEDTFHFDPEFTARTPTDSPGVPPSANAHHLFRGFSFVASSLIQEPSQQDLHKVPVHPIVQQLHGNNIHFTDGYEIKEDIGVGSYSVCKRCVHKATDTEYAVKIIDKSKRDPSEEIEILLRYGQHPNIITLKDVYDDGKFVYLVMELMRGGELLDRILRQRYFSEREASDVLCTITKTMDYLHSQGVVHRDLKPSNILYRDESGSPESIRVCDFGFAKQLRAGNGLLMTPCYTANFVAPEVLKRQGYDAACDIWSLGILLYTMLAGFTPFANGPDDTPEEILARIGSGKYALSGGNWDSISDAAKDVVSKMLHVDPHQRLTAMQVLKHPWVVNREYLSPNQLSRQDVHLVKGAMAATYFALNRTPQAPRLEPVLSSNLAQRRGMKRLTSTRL
# Platelet-derived growth factor receptor beta (Homo sapiens), sequence (P09619 whole entry, canonical isoform): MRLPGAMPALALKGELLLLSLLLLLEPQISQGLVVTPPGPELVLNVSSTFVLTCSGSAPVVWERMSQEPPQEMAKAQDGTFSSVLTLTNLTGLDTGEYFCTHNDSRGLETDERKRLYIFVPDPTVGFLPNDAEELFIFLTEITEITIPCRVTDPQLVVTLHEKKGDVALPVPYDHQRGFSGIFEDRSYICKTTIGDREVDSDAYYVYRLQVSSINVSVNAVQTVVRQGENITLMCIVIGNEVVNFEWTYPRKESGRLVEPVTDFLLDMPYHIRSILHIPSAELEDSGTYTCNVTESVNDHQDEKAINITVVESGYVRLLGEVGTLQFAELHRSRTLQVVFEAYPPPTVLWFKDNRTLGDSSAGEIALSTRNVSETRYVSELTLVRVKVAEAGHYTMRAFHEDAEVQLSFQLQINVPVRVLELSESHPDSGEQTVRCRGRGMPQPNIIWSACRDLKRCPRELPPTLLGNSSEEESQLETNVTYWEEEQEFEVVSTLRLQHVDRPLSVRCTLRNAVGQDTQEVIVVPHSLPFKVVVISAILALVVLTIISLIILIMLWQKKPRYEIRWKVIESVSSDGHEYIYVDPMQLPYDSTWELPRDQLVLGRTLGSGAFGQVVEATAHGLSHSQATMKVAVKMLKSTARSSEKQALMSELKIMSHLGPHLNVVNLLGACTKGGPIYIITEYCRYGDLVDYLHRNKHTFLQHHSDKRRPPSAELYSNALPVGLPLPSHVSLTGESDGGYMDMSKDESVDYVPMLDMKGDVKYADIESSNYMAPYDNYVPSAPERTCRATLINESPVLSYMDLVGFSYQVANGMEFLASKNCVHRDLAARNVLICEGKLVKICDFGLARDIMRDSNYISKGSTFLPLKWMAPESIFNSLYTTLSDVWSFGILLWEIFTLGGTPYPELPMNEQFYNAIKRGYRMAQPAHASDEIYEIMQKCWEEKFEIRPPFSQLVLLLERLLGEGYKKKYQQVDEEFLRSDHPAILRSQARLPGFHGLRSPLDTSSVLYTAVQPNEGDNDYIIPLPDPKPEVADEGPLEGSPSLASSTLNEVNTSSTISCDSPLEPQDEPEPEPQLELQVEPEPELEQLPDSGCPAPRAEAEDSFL
# Activated CDC42 kinase 1 (Homo sapiens), sequence (Q07912 whole entry, looked up): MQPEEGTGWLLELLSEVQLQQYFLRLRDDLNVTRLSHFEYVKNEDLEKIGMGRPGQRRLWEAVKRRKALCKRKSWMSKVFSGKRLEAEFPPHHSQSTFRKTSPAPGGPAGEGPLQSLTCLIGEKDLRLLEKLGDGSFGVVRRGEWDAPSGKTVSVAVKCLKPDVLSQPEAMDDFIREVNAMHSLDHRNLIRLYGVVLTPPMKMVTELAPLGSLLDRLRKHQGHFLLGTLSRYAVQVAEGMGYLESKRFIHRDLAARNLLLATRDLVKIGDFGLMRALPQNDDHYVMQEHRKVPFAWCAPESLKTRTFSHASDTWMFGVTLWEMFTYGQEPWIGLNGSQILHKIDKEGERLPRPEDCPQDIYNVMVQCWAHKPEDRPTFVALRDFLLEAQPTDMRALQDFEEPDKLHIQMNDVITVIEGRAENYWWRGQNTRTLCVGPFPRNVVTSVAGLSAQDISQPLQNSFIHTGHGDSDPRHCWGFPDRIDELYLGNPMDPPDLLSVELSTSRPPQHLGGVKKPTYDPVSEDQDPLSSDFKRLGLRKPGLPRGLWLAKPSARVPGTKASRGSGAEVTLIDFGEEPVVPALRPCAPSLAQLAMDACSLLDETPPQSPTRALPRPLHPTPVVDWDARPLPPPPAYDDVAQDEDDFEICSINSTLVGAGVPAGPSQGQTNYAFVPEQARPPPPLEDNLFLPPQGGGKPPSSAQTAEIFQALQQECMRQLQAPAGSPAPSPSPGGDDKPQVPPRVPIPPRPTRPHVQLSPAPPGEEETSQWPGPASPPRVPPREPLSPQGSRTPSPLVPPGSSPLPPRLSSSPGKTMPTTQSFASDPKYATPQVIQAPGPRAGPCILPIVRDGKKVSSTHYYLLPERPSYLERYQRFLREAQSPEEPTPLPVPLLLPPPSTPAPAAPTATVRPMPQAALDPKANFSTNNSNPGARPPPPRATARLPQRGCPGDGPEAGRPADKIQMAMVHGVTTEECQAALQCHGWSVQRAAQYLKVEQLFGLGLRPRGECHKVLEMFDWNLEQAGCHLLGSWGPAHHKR
# Dual specificity tyrosine-phosphorylation-regulated kinase 2 (Homo sapiens), sequence (Q92630 whole entry): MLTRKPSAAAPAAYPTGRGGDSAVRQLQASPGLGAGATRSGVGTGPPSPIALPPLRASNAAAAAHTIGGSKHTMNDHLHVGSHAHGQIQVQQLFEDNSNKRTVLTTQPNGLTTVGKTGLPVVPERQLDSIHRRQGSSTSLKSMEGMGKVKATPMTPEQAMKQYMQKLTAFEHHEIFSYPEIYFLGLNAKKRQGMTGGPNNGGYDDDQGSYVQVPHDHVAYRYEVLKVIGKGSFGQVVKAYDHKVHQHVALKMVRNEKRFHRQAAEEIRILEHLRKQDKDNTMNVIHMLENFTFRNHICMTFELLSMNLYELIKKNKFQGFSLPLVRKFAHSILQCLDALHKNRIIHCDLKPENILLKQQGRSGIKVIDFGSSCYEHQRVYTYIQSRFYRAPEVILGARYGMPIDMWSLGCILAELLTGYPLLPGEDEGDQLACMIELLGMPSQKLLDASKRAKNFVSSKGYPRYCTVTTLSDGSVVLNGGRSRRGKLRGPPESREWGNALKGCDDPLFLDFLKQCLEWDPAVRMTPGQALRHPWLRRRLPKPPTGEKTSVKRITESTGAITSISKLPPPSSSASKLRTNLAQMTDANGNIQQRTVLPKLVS
# Serine/threonine-protein kinase 26 (Homo sapiens), sequence (Q9P289 2-416 limits assumed): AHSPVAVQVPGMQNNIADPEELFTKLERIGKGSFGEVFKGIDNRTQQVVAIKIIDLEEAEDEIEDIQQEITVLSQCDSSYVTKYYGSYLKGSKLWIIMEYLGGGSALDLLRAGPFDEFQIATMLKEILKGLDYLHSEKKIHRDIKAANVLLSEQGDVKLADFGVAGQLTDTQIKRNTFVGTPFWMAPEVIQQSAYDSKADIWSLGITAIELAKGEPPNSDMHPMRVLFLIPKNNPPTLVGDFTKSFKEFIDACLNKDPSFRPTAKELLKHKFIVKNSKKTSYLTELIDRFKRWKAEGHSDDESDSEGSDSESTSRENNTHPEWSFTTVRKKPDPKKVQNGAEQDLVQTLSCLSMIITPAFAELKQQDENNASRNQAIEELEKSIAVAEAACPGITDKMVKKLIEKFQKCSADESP
# Serine/threonine-protein kinase Chk1 (Homo sapiens), sequence (O14757 whole entry): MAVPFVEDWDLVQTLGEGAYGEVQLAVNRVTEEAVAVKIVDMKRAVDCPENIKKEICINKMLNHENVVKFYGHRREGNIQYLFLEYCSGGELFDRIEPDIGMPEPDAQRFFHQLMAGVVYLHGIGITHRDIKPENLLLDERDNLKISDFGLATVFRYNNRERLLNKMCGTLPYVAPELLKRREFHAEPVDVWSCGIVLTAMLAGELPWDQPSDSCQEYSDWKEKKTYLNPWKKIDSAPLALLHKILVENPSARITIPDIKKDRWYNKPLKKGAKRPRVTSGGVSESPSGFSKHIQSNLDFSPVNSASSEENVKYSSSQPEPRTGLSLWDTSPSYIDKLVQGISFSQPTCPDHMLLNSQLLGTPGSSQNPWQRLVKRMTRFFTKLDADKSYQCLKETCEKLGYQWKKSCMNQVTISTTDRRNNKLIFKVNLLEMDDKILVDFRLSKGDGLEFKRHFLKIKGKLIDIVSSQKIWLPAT
structure (smiles),measurement,setting,value
CN1C(=O)/C(=C2/C(=O)Nc3ccccc32)c2ccccc21,Activity,[1],96%
same,Activity,[2],83%
same,Activity,[3],84%
same,Activity,[4],100%
same,Activity,[5],90%
same,Activity,[6],100%
same,Activity,[7],95%
same,Activity,[8],74%
same,Activity,[9],100%
same,Activity,[10],100%
same,Activity,[11],98%
same,Activity,[12],92%
same,Activity,[13],97%
same,Activity,[14],75%
same,Activity,[15],100%
same,Activity,[16],100%
same,Activity,[17],85%
same,Activity,[18],100%
same,Activity,[19],97%
same,Activity,[20],79%
same,Activity,[21],100%
same,Activity,[22],92%
same,Activity,[23],92%
same,Activity,[24],68%
same,Activity,[25],100%
same,Activity,[26],90%
same,Activity,[27],85%
same,Activity,[28],93%
same,Activity,[29],91%
